These results are taken from US11589575B2, “Injectable preserving medium for preserving cells from placental blood, from bone marrow and from peripheral blood” (ETABLISSEMENT FRANCAIS DU SANG, priority 2015, dated 2023).

The test concerns placental blood CD34+ cells amplified ex vivo. Briefly: Preservation at +4° C. of ex vivo amplified placental blood CD34+ cells (TNC viability and clonogenic CFC/CFU yield). The test is classed as cell-based, human. To be noted: for preserving of the functionality (clonogenicity) of amplified cells: cells stored at +4° C. How it is done: The cells, after ex vivo expansion, are more fragile than the original CD34+ cells, and the maintaining thereof is most critical at +4° C. (Duchez et al, 2013, supra).
Throughout all the studies leading to the formulation of the biological preserving medium, the assays were conducted on placental blood CD34+ cells derived from a bank with storage at −196° C. Each assay was performed on one 1 or more samples.
The placental blood CD34+ cells were isolated with an immunomagnetic system, then frozen and banked at −196° C.
After thawing, the placental blood CD34+ cells (20000/ml) were placed in culture in HP01 medium in the presence of SCF (Stem Cell Factor) 100 ng/ml, Flt3 (FMS-like tyrosine kinase-3) 100 ng/ml, G-CSF (Granulocyte Colony Stimulating Factor) 10 ng/ml, and thrombopoietin (TPO) 20 ng/ml at 37° C., 5% CO2 and 85% humidity. At mid-culture, the addition was made of HP01 culture medium with the cytokines (1/5 dilution) and culture continued up to 9 to 12 days (generally 10 days).
After culture, 2.5 ml of cell suspension were transferred to 2.5 ml gas-impermeable polypropylene tubes and centrifuged at 430 g for 10 minutes at 18° C. The supernatant was fully removed (with about 50 μl of supernatant remaining on the cell residue). Then, 2.45 ml of preserving medium to be assayed (at ambient temperature) were added to the tube and the tube sealed with the stopper; the cells being replaced in suspension with successive upturning movements. The samples were left at ambient temperature for 1 to 3 hours. Finally, the tubes were placed flat at +4° C. for times generally of 48 h to 72 h. Assays were also conducted in gas-permeable PVC pouches for comparative studies and in gas-impermeable EVA pouches.
Analyses were performed on the amplified cells: counting and viability of TNCs (Total Nucleated Cells), clonogenic assays, sometimes with counting and viability of CD34+ cells. After the period at +4° C. for the defined times (48 h and 72 h), the cell samples were assayed: counting and viability of TNCs and clonogenic assays (at times also counting and viability of CD34+ cells).
The quantity of viable total nucleated cells remaining after storage at 4° C. was compared with the quantity of viable total nucleated cells at the end of culture, to obtain a recovery yield of viable cells. Similarly, the yield of CFCs (Colony Forming Cells) was calculated. The values obtained were used to evaluate the advantage of one or more compounds in the formulation and to identify the optimal concentration of these compounds. The values were compared with those obtained with the HP02 preserving medium (Duchez et al, 2013, supra).

Entries after “also recorded” stand apart in the source; their conditions may differ.

In the case of `CC1=C(/C=C/C(C)=C/C=C/C(C)=C/CO)C(C)(C)CCC1` [vitamin A, Retinol], the “preserving of the functionality (clonogenicity) of amplified cells” value (“preserving of the functionality” below) was “lesser action”.

On to `Cc1c(C)c2c(c(C)c1O)CC[C@@](C)(CCC[C@H](C)CCC[C@H](C)CCCC(C)C)O2` [vitamin E, Alpha-tocopherol], for which the “preserving of the functionality” value was “the greatest action; also recorded: the most important action”. Further, for the setting “stored at +4° C.”, the “action throughout the assays on preservation of amplified cells (readout not further specified)” value is listed as “effect close to or identical to the effect of Cernevit®”.

As for `O=C1O[C@H]([C@@H](O)CO)C(O)=C1O` [vitamin C, Ascorbic acid], the “preserving of the functionality” value is on record as “lesser action”.
